Reference: US9211325B2, “Peptide adjuvants” (priority 2008, dated 2015)
Entries after “also recorded” stand apart in the source; their conditions may differ.

System: H5N1 A\Hanoi\30408\2005
Parameters: species or system BALB/c mice
Details: mouse, in vivo

With “KWCEC (Short peptide sequence not known to occur in nature) [5mer4]” the “clinical signs of disease” value was “no clinical signs of disease”, the survival was 90% and the “survival (protected from death)” value was 50%. For the same substance, the weight loss was “minimal weight loss; also recorded: no statistically significant weight loss”.
